Assay results: patent US10787442B2, “Modulators of indoleamine 2,3-dioxygenase” (GLAXOSMITHKLINE INTELLECTUAL PROPERTY DEVELOPMENT LIMITED, priority 2016, dated 2020)
Read-outs that look alike come from different tables or passages of the source.

What was measured:
[1] = biological target: indoleamine 2, 3-dioxygenase (IDO1) (Homo sapiens, UniProt P14902); experiment: IDO1 HeLa RapidFire MS Assay (kynurenine by mass spectrometry); assay type: cell-based; conditions: HeLa cells stimulated with IFN-γ, 2 days; recorded as pIC50; read-out: IDO1 HeLa PXC50 (converted)
Chain of indoleamine 2, 3-dioxygenase (IDO1) (P14902 whole entry): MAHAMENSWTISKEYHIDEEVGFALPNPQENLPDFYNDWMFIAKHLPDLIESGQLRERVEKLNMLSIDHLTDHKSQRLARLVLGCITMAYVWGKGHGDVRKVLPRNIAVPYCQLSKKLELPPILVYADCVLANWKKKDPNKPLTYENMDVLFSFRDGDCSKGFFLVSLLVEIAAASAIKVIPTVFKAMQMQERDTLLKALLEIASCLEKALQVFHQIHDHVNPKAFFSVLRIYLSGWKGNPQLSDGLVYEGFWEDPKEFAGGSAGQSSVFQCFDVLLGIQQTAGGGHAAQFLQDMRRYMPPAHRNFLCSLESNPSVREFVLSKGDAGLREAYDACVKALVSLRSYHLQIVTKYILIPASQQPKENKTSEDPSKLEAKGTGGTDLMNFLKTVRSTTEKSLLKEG
Method: IDO1 HeLa RapidFire MS Assay
(§1) Compounds of the present invention were tested via high-throughput cellular assays utilizing detection of kynurenine via mass spectrometry and cytotoxicity as end-points. […] Compounds with IDO1 inhibitory properties decreased the amount of kynurenine produced by the cells via the tryptophan catabolic pathway. Cellular toxicity due to the effect of compound treatment was measured using CellTiter-Glo® reagent (CTG) (Promega Corporation, Madison, Wis.), which is based on luminescent detection of ATP, an indicator of metabolically active cells.
(§2) In preparation for the assays, test compounds were serially diluted 3-fold in DMSO from a typical top concentration of 1 mM or 5 mM and plated at 0.5 μL in 384-well, polystyrene, clear bottom, tissue culture treated plates with lids (Greiner Bio-One, Kremsmünster, Austria) to generate 11-point dose response curves. Low control wells (0% kynurenine or 100% cytotoxicity) contained either 0.5 μL of DMSO in the presence of unstimulated (−IFN-γ) HeLa cells for the mass spectrometry assay or 0.5 μL of DMSO in the absence of cells for the cytotoxicity assay, and high control wells (100% kynurenine or 0% cytotoxicity) contained 0.5 μL of DMSO in the presence of stimulated (+IFN-γ) HeLa cells for both the mass spectrometry and cytotoxicity assays.
(§3) Frozen stocks of HeLa cells were washed and recovered in DMEM high glucose medium with HEPES (Thermo Fisher Scientific, Inc., Waltham, Mass.) supplemented with 10% v/v certified fetal bovine serum (FBS) (Thermo Fisher Scientific, Inc., Waltham, Mass.), and 1× penicillin-streptomycin antibiotic solution (Thermo Fisher Scientific, Inc., Waltham, Mass.). The cells were diluted to 100,000 cells/mL in the supplemented DMEM medium. 50 μL of either the cell suspension, for the mass spectrometry assay, or medium alone, for the cytotoxicity assay, were added to the low control wells, on the previously prepared 384-well compound plates, resulting in 5,000 cells/well or 0 cells/well respectively. IFN-γ was added to the remaining cell suspension at a final concentration of 10 nM, and 50 μL of the stimulated cells were added to all remaining wells on the 384-well compound plates. The plates, with lids, were then placed in a 37° C., 5% CO2 humidified incubator for 2 days.
(§4) Following incubation, the 384-well plates were removed from the incubator and allowed to equilibrate to room temperature for 30 minutes. For the cytotoxicity assay, CellTiter-Glo® was prepared according to the manufacturer's instructions, and 10 μL were added to each plate well. After a twenty minute incubation at room temperature, luminescence was read on an EnVision® Multilabel Reader (PerkinElmer Inc., Waltham, Mass.). For the mass spectrometry assay, 10 μL of supernatant from each well of the compound-treated plates were added to 40 μL of acetonitrile, containing 10 μM of an internal standard for normalization, in 384-well, polypropylene, V-bottom plates (Greiner Bio-One, Kremsmünster, Austria) to extract the organic analytes. Following centrifugation at 2000 rpm for 10 minutes, 10 μL from each well of the acetonitrile extraction plates were added to 90 μL of sterile, distilled H2O in 384-well, polypropylene, V-bottom plates for analysis of kynurenine and the internal standard on the RapidFire 300 (Agilent Technologies, Santa Clara, Calif.) and 4000 QTRAP MS (SCIEX, Framingham, Mass.). MS data were integrated using Agilent Technologies' RapidFire Integrator software, and data were normalized for analysis as a ratio of kynurenine to the internal standard.

[2] = test system: human peripheral blood mononuclear cells (PBMC); experiment: PBMC cytotoxicity assay (CellTiter-Glo); assay type: cell-based; conditions: cytotoxicity in stimulated PBMC, recorded as pCC50
[3] = biological target: T1, ePL tagged IDO1 (Homo sapiens, UniProt P14902); experiment: CETSA (Cellular Thermal Shifting assay); assay type: binding; conditions: Hela cells, 3 hours at 37° C., heated at 53° C. for 3 min
T1 construct: expressed in transfected cells; host or cells: HeLa cells transduced with BacMam virus
T1 sequence (P14902 whole entry): as above
Method: Cellular Thermal Shifting assays were used to directly monitor the ligand binding to target proteins in cells. Hela cells were transduced with BacMam virus expressing ePL tagged IDO1 overnight. The cells were then plated over the compounds for 3 hours at 37° C. in cell culture medium containing 1% FBS. The plates were then sealed and heated at 53° C. for 3 min. InCell Hunter reagents were added and luminescence was read in 90 min.

[4] = test system: human epithelial HeLa cells; experiment: HeLa cytotoxicity assay (CellTiter-Glo); assay type: cell-based; conditions: cytotoxicity in stimulated HeLa cells, recorded as pCC50
Method: as §1, §2, §3, §4

[5] = test system: PAN02 pancreatic cells; conditions: cited from earlier work

Row | Compound | IC50 [1] | PBMC_TOX PXC50 [2] | EC50 ([3]; first value, read-out: pXC50_1 (converted)) | EC50 ([3]; second value, read-out: pXC50_2 (converted)) | HELA_IDO1_TOX_PXC50 [4] | effect against the same tumor ([5]; immune-deficient mice) | inhibition of tumor growth ([5]; immunocompetent mice, orally dosed)
1 | CC(C)CN(c1ncc([C@H](C)CC(=O)O)cc1Nc1nc(C(F)(F)F)ns1)C1CCOCC1 [Example 3, (R)-3-(6-(isobutyl(tetrahydro-2H-pyran-4-yl)amino)-5-((3-(trifluoromethyl)-1,2,4-thiadiazol-5-yl)amino)pyridin-3-yl)butanoic acid] | 10 nM | <5.0 | 162 nM | 186 nM | <5 |  | 
2 | NS(=O)(=O)NCCNc1nonc1C(=NO)Nc1ccc(F)c(Br)c1 [INCB204360] |  |  |  |  |  | without effect | significant dose-dependent inhibition of tumor growth
